# From PubChem BioAssay (NCI)
#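 Interpolation was linear, between the two tested concentrations surrounding the appropriate level; five concentrations were tested over 48 hours in 96-well plates. Abbreviation: GI50, concentration required for 50% inhibition of growth. TGI denotes the concentration required for complete inhibition of growth.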
# Experiments:
# Experiment in all cases: growth of human tumour cells (NCI), 48 h
# UO-31 renal = system: UO-31 renal
# CAKI-1 renal = system: CAKI-1 renal
# ACHN renal = system: ACHN renal
# MDA-MB-435 = system: MDA-MB-435
# BT-549 breast = system: BT-549 breast
# MDA-MB-231 breast = system: MDA-MB-231 breast
# HOP-62 NSCLC = system: HOP-62 NSCLC
# OVCAR-4 ovarian = system: OVCAR-4 ovarian
# OVCAR-5 ovarian = system: OVCAR-5 ovarian
# K-562 leukemia = system: K-562 leukemia
# SF-539 CNS = system: SF-539 CNS
# A549 NSCLC = system: A549 NSCLC
# UACC-62 melanoma = system: UACC-62 melanoma
# MALME-3M melanoma = system: MALME-3M melanoma
# KM12 colon = system: KM12 colon
# UACC-257 melanoma = system: UACC-257 melanoma
# SK-MEL-2 melanoma = system: SK-MEL-2 melanoma
# NCI-H522 lung = system: NCI-H522 lung
# COLO 205 colon = system: COLO 205 colon
# SW-620 colon = system: SW-620 colon
# NCI/ADR-RES ovarian = system: NCI/ADR-RES ovarian
# SK-OV-3 ovarian = system: SK-OV-3 ovarian
# LOX IMVI melanoma = system: LOX IMVI melanoma
# NCI-H226 lung = system: NCI-H226 lung
# M14 melanoma = system: M14 melanoma
# SR leukemia = system: SR leukemia
# HT29 colon = system: HT29 colon
# SN12C renal = system: SN12C renal
# RXF 393 renal = system: RXF 393 renal
# 786-0 renal = system: 786-0 renal
# OVCAR-8 ovarian = system: OVCAR-8 ovarian
# SNB-75 CNS = system: SNB-75 CNS
# RPMI-8226 leukemia = system: RPMI-8226 leukemia
# PC-3 prostate = system: PC-3 prostate
# NCI-H23 lung = system: NCI-H23 lung
# OVCAR-3 ovarian = system: OVCAR-3 ovarian
# DU-145 prostate = system: DU-145 prostate
# CCRF-CEM leukemia = system: CCRF-CEM leukemia
# A498 renal = system: A498 renal
# EKVX NSCLC = system: EKVX NSCLC
# T-47D breast = system: T-47D breast
# TK-10 renal = system: TK-10 renal
# HS 578T breast = system: HS 578T breast
# SK-MEL-28 melanoma = system: SK-MEL-28 melanoma
# SK-MEL-5 melanoma = system: SK-MEL-5 melanoma
# IGROV1 ovarian = system: IGROV1 ovarian
# HCT-15 colon = system: HCT-15 colon
# U251 CNS = system: U251 CNS
# HCC-2998 colon = system: HCC-2998 colon
# HL-60(TB) leukemia = system: HL-60(TB) leukemia
# SF-295 CNS = system: SF-295 CNS
# HCT-116 colon = system: HCT-116 colon
structure (smiles),measurement,setting,value
CO/N=C(\COc1ccc2c(=O)cc(-c3ccccc3)oc2c1)c1ccc(F)cc1,GI50,UO-31 renal,> 100 µM
same,TGI,UO-31 renal,> 100 µM
same,GI50,CAKI-1 renal,22.7 µM
same,TGI,CAKI-1 renal,65.6 µM
same,GI50,ACHN renal,34 µM
same,TGI,ACHN renal,> 100 µM
same,GI50,MDA-MB-435,10.3 µM
same,TGI,MDA-MB-435,37.1 µM
same,GI50,BT-549 breast,> 100 µM
same,TGI,BT-549 breast,> 100 µM
same,GI50,MDA-MB-231 breast,27.7 µM
same,TGI,MDA-MB-231 breast,64 µM
same,GI50,HOP-62 NSCLC,21 µM
same,TGI,HOP-62 NSCLC,50.5 µM
same,GI50,OVCAR-4 ovarian,58.2 µM
same,TGI,OVCAR-4 ovarian,> 100 µM
same,GI50,OVCAR-5 ovarian,42.1 µM
same,TGI,OVCAR-5 ovarian,> 100 µM
same,GI50,K-562 leukemia,36.5 µM
same,TGI,K-562 leukemia,> 100 µM
same,GI50,SF-539 CNS,94.8 µM
same,TGI,SF-539 CNS,> 100 µM
same,GI50,A549 NSCLC,30.6 µM
same,TGI,A549 NSCLC,> 100 µM
same,GI50,UACC-62 melanoma,29.8 µM
same,TGI,UACC-62 melanoma,> 100 µM
same,GI50,MALME-3M melanoma,19.3 µM
same,TGI,MALME-3M melanoma,45.9 µM
same,GI50,KM12 colon,53.8 µM
same,TGI,KM12 colon,> 100 µM
same,GI50,UACC-257 melanoma,32.1 µM
same,TGI,UACC-257 melanoma,> 100 µM
same,GI50,SK-MEL-2 melanoma,24 µM
same,TGI,SK-MEL-2 melanoma,60.4 µM
same,GI50,NCI-H522 lung,23.1 µM
same,TGI,NCI-H522 lung,62.3 µM
same,GI50,COLO 205 colon,> 100 µM
same,TGI,COLO 205 colon,> 100 µM
same,GI50,SW-620 colon,42.6 µM
same,TGI,SW-620 colon,> 100 µM
same,GI50,NCI/ADR-RES ovarian,34.4 µM
same,TGI,NCI/ADR-RES ovarian,> 100 µM
same,GI50,SK-OV-3 ovarian,41.4 µM
same,TGI,SK-OV-3 ovarian,> 100 µM
same,GI50,LOX IMVI melanoma,67.5 µM
same,TGI,LOX IMVI melanoma,> 100 µM
same,GI50,NCI-H226 lung,> 100 µM
same,TGI,NCI-H226 lung,> 100 µM
same,GI50,M14 melanoma,36.1 µM
same,TGI,M14 melanoma,> 100 µM
same,GI50,SR leukemia,14.5 µM
same,TGI,SR leukemia,47.2 µM
same,GI50,HT29 colon,33.6 µM
same,TGI,HT29 colon,> 100 µM
same,GI50,SN12C renal,36.2 µM
same,TGI,SN12C renal,> 100 µM
same,GI50,RXF 393 renal,27.7 µM
same,TGI,RXF 393 renal,87.5 µM
same,GI50,786-0 renal,20.7 µM
same,TGI,786-0 renal,49.8 µM
same,GI50,OVCAR-8 ovarian,40.7 µM
same,TGI,OVCAR-8 ovarian,> 100 µM
same,GI50,SNB-75 CNS,24.1 µM
same,TGI,SNB-75 CNS,55 µM
same,GI50,RPMI-8226 leukemia,> 100 µM
same,TGI,RPMI-8226 leukemia,> 100 µM
same,GI50,PC-3 prostate,37.9 µM
same,TGI,PC-3 prostate,> 100 µM
same,GI50,NCI-H23 lung,92.7 µM
same,TGI,NCI-H23 lung,> 100 µM
same,GI50,OVCAR-3 ovarian,14 µM
same,TGI,OVCAR-3 ovarian,47.7 µM
same,GI50,DU-145 prostate,76.1 µM
same,TGI,DU-145 prostate,> 100 µM
same,GI50,CCRF-CEM leukemia,> 100 µM
same,TGI,CCRF-CEM leukemia,> 100 µM
same,GI50,A498 renal,> 100 µM
same,TGI,A498 renal,> 100 µM
same,GI50,EKVX NSCLC,74.4 µM
same,TGI,EKVX NSCLC,> 100 µM
same,GI50,T-47D breast,68.4 µM
same,TGI,T-47D breast,> 100 µM
same,GI50,TK-10 renal,41.7 µM
same,TGI,TK-10 renal,> 100 µM
same,GI50,HS 578T breast,51.5 µM
same,TGI,HS 578T breast,> 100 µM
same,GI50,SK-MEL-28 melanoma,89.4 µM
same,TGI,SK-MEL-28 melanoma,> 100 µM
same,GI50,SK-MEL-5 melanoma,35.1 µM
same,TGI,SK-MEL-5 melanoma,> 100 µM
same,GI50,IGROV1 ovarian,21.9 µM
same,TGI,IGROV1 ovarian,66.6 µM
same,GI50,HCT-15 colon,63.9 µM
same,TGI,HCT-15 colon,> 100 µM
same,GI50,U251 CNS,29.2 µM
same,TGI,U251 CNS,88.5 µM
same,GI50,HCC-2998 colon,32.3 µM
same,TGI,HCC-2998 colon,96 µM
same,GI50,HL-60(TB) leukemia,21 µM
same,TGI,HL-60(TB) leukemia,> 100 µM
same,GI50,SF-295 CNS,25.8 µM
same,TGI,SF-295 CNS,56.9 µM
same,GI50,HCT-116 colon,28.4 µM
same,TGI,HCT-116 colon,> 100 µM
